Several values for one entry are separate records, joined by “and”; a condition that tells them apart may be missing. Equal values may be shown once.
Columns and labels:
[1] = LDH release cytotoxicity assay; format: cell-based, human; details: human, A549 cells
Procedure: (§1) Cells were treated with compounds at the indicated concentrations for 24 h. The release of lactate dehydrogenase (LDH) was measured using a Cytotoxicity Detection Kit (Roche, Basel, Switzerland) after removing cell debris. Cells treated with 1% Triton X-100 were used to determine the maximal LDH release.

A549 cells = assay: LDH release cytotoxicity assay; format: cell-based, human; details: 24 h
Procedure: as §1

DENV-2-eGFP = assay: microbe, parasite or virus in culture; format: cell-based, dengue virus
Procedure: (§2) Approximately 50% of confluent cells seeded in 96-well plates were infected with viruses in the presence of drugs or DMSO as a solvent control. At 24 h post-infection (hpi), cells were fixed with 4% paraformaldehyde at room temperature (RT) for 20 min, permeated with a 0.5% Triton X-100 buffer for 2 min, and blocked with 3% BSA for 30 min. Nuclei were stained with DAPI (Sigma) at RT for 20 min. Viral NS3 was stained with a mouse anti-NS3 monoclonal antibody (mAb)[47] followed by staining with an Alexa Fluor 488-conjugated goat anti-mouse IgG antibody (ThermoFisher) at RT for 1 h. Nine images from different fields per well were acquired and analyzed using an ImageXpress Micro XLS Widefield High-Content Analysis System (Molecular Devices, Sunnyvale, USA). To quantify viral infection, the fluorescence intensities of viral NS3 or eGFP from the reporter virus were measured using MetaXpress® (Molecular Devices, Sunnyvale, USA) and were calculated with a mock control (infection as 0%) and a DMSO solvent control (infection as 100%).

JEV-eGFP = assay: microbe, parasite or virus in culture; format: cell-based, Japanese encephalitis virus
Procedure: as §2

ZIKV = assay: High-content image analysis of ZIKV infection (NS3) in A549 cells; format: cell-based, Zika virus; details: ZIKV
Procedure: as §2

Row | Compound | CC50 at 24 h [1] [µM] | CC50 (A549 cells; A549 cells) [µM] | noncytotoxic concentrations (A549 cells; human A549 cells) [µM] | SI (CC50/IC50) (DENV-2-eGFP; DENV-2-eGFP, A549 cells) | IC50 (DENV-2-eGFP; Dengue virus, DENV2, A549, 24 h) [µM] | anti-DENV activity with uridine supplement (DENV-2-eGFP; uridine 50 µg/ml, P12-23 1 µM, P12-34 1 µM, AR-12 5 µM, A549 cells) | SI (CC50/IC50) (JEV-eGFP; JEV-eGFP, A549 cells) | IC50 (JEV-eGFP; Japanese encephalitis virus, A549, 24 h) [µM] | SI (CC50/IC50) (ZIKV; A549 cells) | IC50 (ZIKV; Zika virus, MOI 0.5, A549 cells, 24 h) [µM] | effect on DENV replication (DENV-2-eGFP; A549 cells, DENV-2-eGFP MOI 5, reversed by exogenous uridine 50 µg/ml)
1 | NCC(=O)Nc1ccc(-n2nc(C(F)(F)F)cc2-c2ccc3c(ccc4ccccc43)c2)cc1 [AR-12] | ~20 | 21.4 ± 0.2 | ≤ 12.5 | 33 and 33.2 ± 5.9 | 0.66 ± 0.13 | abolished | 42.3 ± 4.1 | 0.51 ± 0.0524 | 15.8 ± 2 | 1.37 ± 0.177 | –
2 | O=C(N[C@@H]1CCCc2c1[nH]c1ccc(Cl)cc21)c1ccccn1 [GSK983, reference compound] | – | – | – | – | – | – | – | – | – | – | reduced DENV replication in a dose-dependent manner
